Data from US6294580A, “Substituted 4-hydroxy-phenylalcanoic acid derivatives with agonist activity to PPAR-gamma” (Glaxo Wellcome Inc., priority 1996, dated 2001).
Counter-ions that a name gives are not always drawn. Like-named read-outs stand apart in the source and are kept apart here.

Columns and labels:
[1] = molecular target: T1, hPPARgamma (Homo sapiens, UniProt P37231); assay: hPPARgamma Ligand Binding Assay; conditions: competition with [3H]-BRL 49,653, room temperature 2 hrs
T1 construct: 10x-histidine tag (N); made in house; host or cells: E. coli
T1 sequence (P37231 195-475 isoform P37231-2): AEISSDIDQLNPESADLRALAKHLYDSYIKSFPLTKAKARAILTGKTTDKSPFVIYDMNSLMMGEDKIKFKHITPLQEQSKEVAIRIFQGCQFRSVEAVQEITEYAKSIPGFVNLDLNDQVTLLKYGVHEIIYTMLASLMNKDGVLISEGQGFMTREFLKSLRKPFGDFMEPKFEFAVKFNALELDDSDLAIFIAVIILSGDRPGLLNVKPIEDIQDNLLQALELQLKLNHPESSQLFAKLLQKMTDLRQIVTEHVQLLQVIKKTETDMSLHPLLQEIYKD
Procedure: 2. hPPARgamma Ligand Binding Assay: The PPAR-gamma ligand binding domain (amino acids 195-475) was expressed with an N-terminal 10×-histidinetag in E. coli cells. The cells were lysed and receptor was purified by means of the epitope tag. The stock solution of protein was diluted to 200 nM in assay buffer (50 mM Tris, 50 mM KCl, pH 8 20 mM CHAPS, 2 mM EDTA 10 mM DTT (Fresh)) just before use.
Test compounds were prepared as 6 mM stock solutions in DMSO. […] The right-most column of wells was used for controls. […] Plates were incubated at room temperature for 2 hrs, and then cooled on ice for 30 minutes. 50 uL samples from each well of a single test plate were simultaneously loaded onto an equilibrated AGTC 96 well gel filtration block (Advanced Genetics Technology Corp.) using a Zymak Rapidplate automated pipettor. The block was placed on top of a clean microtiter plate and centrifuged @1,100×g for 4 min. 200 uL of scintillation fluid was added to each well, the plates were sealed and allowed to equilibrate for at least 4 hours before counting in a Wallac 1250 Microbeta counter.
Ki's were determined from a nonlinear least squares fit of the data to a simple competitive binding model.

[2] = system: PPARg; assay: PPARgamma Transient Cotransfection Assay; assay type: cell-based
[3] = CAT reporter, read-out: PPARg EC50
[4] = read-out: PPARg EC50, CAT reporter

Compound | EC50 [2, 3] [nM] | PPARg Fold. Act. ([2]; CAT reporter) | Ki ([1]; PPARg Ki) [nM] | other results
2-(2-Benzoyl-phenylamino)-3-(4-{2-[3-(5-methyl-pyridin-2-yl)-propoxy]-ethoxyl}-phenyl)-propionic acid [Example 122] | 500 |  |  | Ki ([1]; read-out: PPARg Ki): 625 nM
3-{4-[2-(Benzoxazol-2-yl-methylamino)-ethoxy]-phenyl}-3-(4-benzoyl-thienylamino)-propionic acid [Example 108] | 20 |  |  | Ki ([1]; read-out: PPARg Ki): 80 nM
COC(=O)C(Cc1ccc(OCc2ccccc2)cc1)Nc1ccccc1C(=O)Nc1ccccc1 (racemic) [Example 6, 3-(4-Benzyloxy-phenyl)-2-(phenylcarbamoyl-phenylamino)-propionic acid methyl ester] |  | 4 |  | 
Cc1oc(-c2ccccc2)nc1CCOc1ccc(CC(Nc2ccccc2C(=O)C2CCCCC2)C(=O)O)cc1 (single isomer, unassigned) [Example 53, 2-(2-Cyclohexanecarbonyl-phenylamino)-3-{4-[2-(5-methyl-2-phenyl-oxazol-4-yl)-ethoxy]-phenyl}-propionic acid] | 25 |  | 70 | 
Cc1oc(-c2ccccc2)nc1CCOc1ccc(CC(Nc2ccccc2C(=O)C2CCCCC2)C(=O)O)cc1 (single isomer, unassigned) [Example 54, 2-(2-Cyclohexanecarbonyl-phenylamino)-3-{4-[2-(5-methyl-2-phenyl-oxazol-4-yl)-ethoxy]-phenyl}-propionic acid] | 250 |  | 3000 | 
CC(=CC(=O)c1ccccc1)N[C@@H](Cc1ccc(OCc2ccccc2)cc1)C(=O)O [Example 1, 3-(4-Benzyloxy-phenyl)-2(S)-(1-methyl-3-oxo-3-phenyl-propenylamino)-propionic acid dicyclohexylamine salt] | 60 | 26 | 55 | 
COC(=O)[C@H](Cc1ccc(OCc2ccccc2)cc1)NC(C)=CC(=O)c1ccccc1 [Example 2, 3-(4-Benzyloxy-phenyl)-2(S)-(1-methyl-3-oxo-3-phenyl-propenylamino)-propionic acid methyl ester] | 100 | 23 | 1000 | 
O=C(C1=C(N[C@@H](Cc2ccc(OCc3ccccc3)cc2)C(=O)O)CCCC1)c1ccccc1 [Example 3, 2(S)-(2-Benzoyl-cyclohex-1-enylamino)-3-(4-benzyloxy-phenyl)-propionic acid dicyclohexylamine salt] |  | 3 |  | 
O=C(c1ccccc1)c1ccccc1NC(Cc1ccc(OCc2ccccc2)cc1)C(=O)O (centres unmarked) [Example 4, 2-(2-benzoylphenylamino)-3-(4-benzyloxyphenyl) propanoic acid] | 3000 | 20 | 1000 | 
COC(=O)C(Cc1ccc(OCc2ccccc2)cc1)Nc1ccccc1C(=O)OCc1ccccc1 (centres unmarked) [Example 5] | 9000 | 10 | > 3000 | 
COC(=O)C(Cc1ccc(OCc2ccccc2)cc1)Nc1ccccc1C(=O)N1CCCCC1 (centres unmarked) [Example 7, 3-(4-Benzyloxy-phenyl)-2-[2-(piperidine-1-carbonyl)-phenylamino]-propionic acid methyl ester] |  | 5 |  | 
O=C(c1ccccc1)c1ccsc1NC(Cc1ccc(OCc2ccccc2)cc1)C(=O)O (centres unmarked) [Example 8, 2-(3-Benzoyl-thiophen-2-yl-amino)-3-(4-benzyloxy-phenyl)-propionic acid] | 720 |  | 21 | 
O=C(c1ccccc1)c1sccc1NC(Cc1ccc(OCc2ccccc2)cc1)C(=O)O (centres unmarked) [Example 9, 2-(2-Benzoyl-thiophen-3-yl-amino)-3-(4-benzyloxy-phenyl)-propionic acid] | 630 |  | 700 | 
COC(=O)[C@H](Cc1ccc(OCc2ccccc2)cc1)NC(=O)c1coc2ccccc2c1=O [Example 10, 3-(4-Benzyloxy-phenyl)-2(S)-[(4-oxo-4H-chromene-3-carbonyl)-amino]-propionic acid methyl ester] | 170 |  | 300 | 
CN(CCOc1ccc(CC(Nc2ccccc2C(=O)c2ccccc2)C(=O)O)cc1)c1ccccn1 (centres unmarked) [Example 11, 2-(2-Benzoyl-phenylamino)-3-{4-[2-(methyl-pyridin-2-yl-amino)-ethoxy]-phenyl}-propionic acid] |  |  |  | EC50 [2, 4]: 10 nM
CCOC(=O)C(Cc1ccc(OCCN(C)c2ccccn2)cc1)Nc1ccccc1C(=O)c1ccccc1 (centres unmarked) [Example 13, 2-(2-Benzoyl-phenylamino)-3-{4-[2-(methyl-pyridin-2-yl-amino)-ethoxy]-phenyl}-propionic acid ethyl ester] | 60 |  | 1300 | 
CC(=CC(=O)c1ccccc1)NC(Cc1ccc(OCCN(C)c2ccccn2)cc1)C(=O)O (centres unmarked) [Example 14, 2-(1-Methyl-oxo-3-phenyl-propenylamino)-3{4-[2-(methyl-pyridin-2-yl-amino)-ethoxy]-phenyl}-propionic acid dicyclohexylamine salt] | 1 | 18 | 80 | 
CN(CCOc1ccc(C[C@H](NC(=O)c2coc3ccccc3c2=O)C(=O)O)cc1)c1nc2ccccc2o1 [Example 28, 3-{4-[2-(Benzoxazol-2-yl-methyl-amino)-ethoxy]-phenyl}-2(S)-[(4-oxo-4H-chromene-3-carbonyl)-amino]-propionic acid] | 25 |  |  | 
COC(=O)[C@H](Cc1ccc(OCCc2nc(N3CCN(C)CC3)sc2C)cc1)Nc1ccccc1C(=O)c1ccccc1 [Example 42] | 5 |  |  | 
CCN(CCOc1ccc(C[C@H](Nc2ccccc2C(=O)OC)C(=O)O)cc1)c1cccc(C)c1 [Example 71] | 150 |  |  | 
Cc1oc(-c2ccccc2)nc1CCOc1ccc(CC(Nc2ccccc2C(=O)c2cccc(C(=O)O)c2)C(=O)O)cc1 (centres unmarked) [Example 84] | 55 |  |  | 
Cc1oc(-c2ccccc2)nc1CCOc1ccc(CC(Nc2ccccc2C(=O)c2cccc(CO)c2)C(=O)O)cc1 (centres unmarked) [Example 85, 2-[2-(3-hydroxymethyl-benzoyl)-phenylamino]-3-{4-[2-(5-methyl-2-phenyl-oxazol-4-yl)-ethoxy]-phenyl}-propionic acid] | 20 |  |  | 
COC(=O)c1ccccc1N[C@@H](Cc1ccc(OCCc2nc(-c3ccccc3)oc2C)cc1)C(=O)O [Example 88, 2-(S)-(1-carboxy-2-{4-{2-(5-methyl-2-phenyl-oxazol-4-yl)-ethoxy]-phenyl}-ethylamino)-benzoic acid methyl ester] |  |  |  | EC50 [2, 4]: 0.5 nM
Cc1oc(-c2ccccc2)nc1CCOc1ccc(C[C@H](Nc2ccccc2C(=O)NCCCN)C(=O)O)cc1 [Example 90, 2-(S)-(1-carboxy-2-{4-{2-(5-methyl-2-phenyl-oxazol-4-yl)-ethoxy]-phenyl}-ethylamino)-benzoic acid 3-aminopropyl amide hydrochloride] |  |  | 3000 | 
CNC(=O)c1ccccc1N[C@@H](Cc1ccc(OCCc2nc(-c3ccccc3)oc2C)cc1)C(=O)O [Example 91, 2-(S)-(1-carboxy-2-{4-{2-(5-methyl-2-phenyl-oxazol-4-yl)ethoxy]-phenyl}-ethylamino)-benzoic acid methyl amide] | 20 |  |  | 
Cc1sc(N2CCN(S(C)(=O)=O)CC2)nc1CCOc1ccc(C[C@H](Nc2ccccc2C(=O)c2ccccc2)C(=O)O)cc1 [Example 103, 2(S)-(2-benzoyl-phenylamino)-3-(4-{2-[5-methyl-2-(4-methylsulfonyl-piperazin-1-yl)-thiazol-4-yl]-ethoxy}-phenyl)-propionic acid] |  |  |  | EC50 [2, 4]: 180 nM
